Values quoted from earlier work, collected in patent US20060069075A1, “Methods for treating dry eye” (priority 2001, published 2006).

Tested on: human conjunctival epithelial cells
Settings: background statement, no data given

Structure (SMILES): CCCCC[C@H](O)/C=C/C=C\C/C=C\C/C=C\CCCC(=O)O [15-HETE]
- secretion of mucin-1 (MUC-1): increase the secretion of mucin-1 (MUC-1)
